Source: US20120309622A1, “HERBICIDES CONTAINING SUBSTITUTED THIEN-3-YL-SULPHONYLAMINIO(THIO)CARBONYL-TRIAZOLIN(ETHI)ONES” (BAYER INTELLECTUAL PROPERTY GMBH, priority 2001, published 2012)

Columns and labels:
Format in all cases: in vivo
Bromus secalinus = experiment: Post-emergence test/greenhouse, % damage after three weeks
Procedure: (§1) The expected action for a given combination of two herbicides can be calculated as follows (cf. COLBY, S. R.: “Calculating synergistic and antagonistic responses of herbicide combinations”, Weeds 15, pages 20-22, 1967):
(§2) If the actual damage exceeds the calculated value, the combination has a superadditive effect, that is to say a synergistic effect.
(§3) Test plants are grown under control conditions (temperature and light).
(§4) Following the spray application, the plant containers are kept in the greenhouse under constant light and temperature conditions.
(§5) After three weeks, the degree of damage to the plants is rated in % damage in comparison to the development of the untreated control.

Chenopodium album = experiment: as above
Excerpt: as §1
(§6) If • X=% damage by herbicide A (active compound of the formula I) at an application rate of p kg/ha and • Y=% damage by herbicide B (active compound of the formula II) at an application rate of q kg/ha and • E=the expected damage of herbicides A+B at an application rate of p+q kg/ha, then
as §2
(§7) Test plants are grown under control conditions (temperature and light). Once the plants have reached a height of 5 to 15 cm, the test compound or the combination of test compounds is applied by spraying such that the particular amounts of active compound desired are applied per unit area. The concentration of the spray liquor is chosen so that the particular amounts of active compound desired are applied in 500 litres of water/ha.
as §4, §5
(§8) The figures denote: • 0%=no effect (like untreated control) • 100%=total destruction

test plants = experiment: Post-emergence test/greenhouse, % damage after three weeks (further test plants, Tables A-1-30 to A-1-104)
Excerpt: as §1, §6, §2, §7, §4, §5, §8

Veronica persicaria = experiment: Post-emergence test/greenhouse, % damage after three weeks
Procedure: as §1, §2, §3, §4, §5

Cassia tora = experiment: as above
Procedure: as §1, §2, §3, §4, §5

Polygonum convolvolus = experiment: as above
Viola arvensis = experiment: as above; conditions: 15 g of ai/ha
Excerpt: as §1, §6, §2, §7, §4, §5, §8

Ipomoea hederacea = experiment: as above
Excerpt: as §1, §6, §2, §7, §4, §5, §8

Abutilon theophrasti = experiment: as above
Excerpt: as §1, §6, §2, §7, §4, §5, §8

Avena fatua = experiment: as above
Excerpt: as §1, §6, §2, §7, §4, §5, §8

Xanthium strumarium = experiment: as above
Excerpt: as §1, §6, §2, §7, §4, §5, §8

Digitaria sanguinalis = experiment: as above
Excerpt: as §1, §6, §2, §7, §4, §5, §8

Matricaria inodora = experiment: as above
Excerpt: as §1, §6, §2, §7, §4, §5, §8

Galium aparine = experiment: as above
Eriochloa villosa = experiment: as above; conditions: 15 g of ai/ha
Cyperus esculentus = experiment: as above; conditions: 8 g of ai/ha
Excerpt: as §1, §6, §2, §7, §4, §5, §8

[1] = application rate 125 g of ai/ha

**Q.** How did the Bromus secalinus observed (Bromus secalinus; application rate 30 g of ai/ha) turn out when flufenacet was run?
**A.** 0%

**Q.** What about the Bromus secalinus observed (Bromus secalinus; application rate 60 g of ai/ha) of the same compound?
**A.** 20%

**Q.** What about the Bromus secalinus observed (Bromus secalinus; [1]) of the same compound?
**A.** 40%

**Q.** What about the Chenopodium album observed (Chenopodium album; application rate 30 g of ai/ha) of the same compound?
**A.** 0%

**Q.** And the Chenopodium album observed (Chenopodium album; application rate 60 g of ai/ha)?
**A.** 0%

**Q.** What about the Chenopodium album observed (Chenopodium album; [1]) of the same compound?
**A.** 0%

**Q.** And the Polygonum convolvolus observed (test plants; application rate 30 g of ai/ha)?
**A.** 0%

**Q.** And the Polygonum convolvolus observed (test plants; application rate 60 g of ai/ha)?
**A.** 0%

**Q.** And the Polygonum convolvolus observed (test plants; [1])?
**A.** 0%

**Q.** For CCCOc1nn(C(=O)[N-]S(=O)(=O)c2ccccc2C(=O)OC)c(=O)n1C.[Na+] [propoxycarbazone-sodium], which Veronica persicaria observed (Veronica persicaria; 60 g of ai/ha) is on record?
**A.** 40%

**Q.** What about the Cassia tora observed (Cassia tora; 30 g of ai/ha) of the same compound?
**A.** 30%

**Q.** What about the Polygonum convolvolus observed (Polygonum convolvolus; 30 g of ai/ha) of the same compound?
**A.** 0%

**Q.** What about the Polygonum convolvolus observed (Polygonum convolvolus; 60 g of ai/ha) of the same compound?
**A.** 0%

**Q.** COc1nn(C(=O)NS(=O)(=O)c2ccccc2OC(F)(F)F)c(=O)n1C.[Na] [flucarbazone-sodium, 4,5-dihydro-3-methoxy-4-methyl-5-oxo-N-[(2-trifluoromethoxyphenyl)-sulphonyl]-1-H-1,2,4-triazole-1-carboxamide sodium salt, reference compound] was tested. Which Veronica persicaria observed (Veronica persicaria; 30 g of ai/ha) did it give?
**A.** 20%

**Q.** And the Veronica persicaria observed (Veronica persicaria; 60 g of ai/ha)?
**A.** 60%

**Q.** And the Bromus secalinus observed (Bromus secalinus; 60 g of ai/ha)?
**A.** 70%

**Q.** And the Viola arvensis observed (Viola arvensis)?
**A.** 30%

**Q.** Which Veronica persicaria observed (Veronica persicaria; 8 g of ai/ha) does the source give for CCOC(=O)[C@@H](C)Oc1ccc(Oc2nc3ccc(Cl)cc3o2)cc1 [fenoxaprop-(P)-ethyl, reference compound] here?
**A.** 0%

**Q.** And the Veronica persicaria observed (Veronica persicaria; 15 g of ai/ha)?
**A.** 0%

**Q.** What about the Veronica persicaria observed (Veronica persicaria; 30 g of ai/ha) of the same compound?
**A.** 0%

**Q.** And the Bromus secalinus observed (Bromus secalinus; 8 g of ai/ha)?
**A.** 0%

**Q.** And the Bromus secalinus observed (Bromus secalinus; 15 g of ai/ha)?
**A.** 0%

**Q.** What about the Bromus secalinus observed (Bromus secalinus; 30 g of ai/ha) of the same compound?
**A.** 0%

**Q.** And the Ipomoea hederacea observed (Ipomoea hederacea; 30 g of ai/ha)?
**A.** 0%

**Q.** Which Veronica persicaria observed (Veronica persicaria; 4 g of ai/ha) does the source give for COc1cc(OC)n2nc(S(=O)(=O)Nc3c(Cl)ccc(C)c3Cl)nc2n1 [metosulam, N-(2,6-dichloro-3-methylphenyl)-5,7-dimethoxy-1,2,4-tri-azolo[1,5-a]-pyrimidine-2-sulphonamide, reference compound] here?
**A.** 80%

**Q.** What about the “Activity against Abutilon theophrasti (%)” value (Abutilon theophrasti; 12.5 g of a.i./ha) of the same compound?
**A.** 60%

**Q.** What about the “Activity against Abutilon theophrasti (%)” value (Abutilon theophrasti; 25 g of a.i./ha) of the same compound?
**A.** 70%

**Q.** And the Avena fatua observed (Avena fatua; 8 g of ai/ha)?
**A.** 0%

**Q.** And the “Activity against Xanthium strumarum (%)” value (Xanthium strumarium; 12.5 g of a.i./ha)?
**A.** 60%

**Q.** And the “Activity against Xanthium strumarum (%)” value (Xanthium strumarium; 25 g of a.i./ha)?
**A.** 90%

**Q.** And the Digitaria sanguinalis observed (Digitaria sanguinalis; 8 g of ai/ha)?
**A.** 30%

**Q.** How did the Cassia tora observed (Cassia tora; 4 g of ai/ha) turn out when CCS(=O)(=O)c1cccnc1S(=O)(=O)NC(=O)Nc1nc(OC)cc(OC)n1 [rimsulfuron] was run?
**A.** 60%

**Q.** And the Cassia tora observed (Cassia tora; 8 g of ai/ha)?
**A.** 80%

**Q.** And the Abutilon theophrasti observed (Abutilon theophrasti; 4 g of ai/ha)?
**A.** 70%

**Q.** What about the Avena fatua observed (Avena fatua; 4 g of ai/ha) of the same compound?
**A.** 70%

**Q.** What about the Avena fatua observed (Avena fatua; 8 g of ai/ha) of the same compound?
**A.** 70%

**Q.** How did the Matricaria inodora observed (Matricaria inodora; 125 g of ai/ha) turn out when Cc1cc(Cl)ccc1O[C@@H](C)C(=O)O [mecoprop-P] was run?
**A.** 0%

**Q.** What about the Matricaria inodora observed (Matricaria inodora; 250 g of ai/ha) of the same compound?
**A.** 0%

**Q.** And the Digitaria sanguinalis observed (Digitaria sanguinalis; 125 g of ai/ha)?
**A.** 40%

**Q.** What about the Digitaria sanguinalis observed (Digitaria sanguinalis; 250 g of ai/ha) of the same compound?
**A.** 70%

**Q.** And the Galium aparine observed (Galium aparine; 125 g of ai/ha)?
**A.** 20%

**Q.** What about the Galium aparine observed (Galium aparine; 250 g of ai/ha) of the same compound?
**A.** 40%

**Q.** Which Eriochloa villosa observed (Eriochloa villosa) does the source give for COc1cc(OC)nc(NC(=O)NS(=O)(=O)c2cc(NC=O)ccc2C(=O)N(C)C)n1 [foramsulfuron] here?
**A.** 60%

**Q.** What about the Ipomoea hederacea observed (Ipomoea hederacea; 15 g of ai/ha) of the same compound?
**A.** 80%

**Q.** And the Cyperus esculentus observed (Cyperus esculentus)?
**A.** 80%

**Q.** COC(=O)c1ccc(C(F)(F)F)nc1S(=O)(=O)NC(=O)Nc1nc(OC)cc(OC)n1.[Na] [flupyrsulfuron, N-(4,6-dimethoxypyrimidin-2-yl)-N′-(3-methoxycarbonyl-6-trifluoromethylpyridin-2-ylsulphonyl)urea sodium salt, reference compound] was tested. Which pest or weed control at 2 g/ha (Bromus secalinus; Bromus secalinus, post-emergence, 504 h, 2 g of ai/ha, read-out: Bromus secalinus observed) did it give?
**A.** 0%

**Q.** What about the pest or weed control at 4 g/ha (Bromus secalinus; Bromus secalinus, post-emergence, 504 h, 4 g of ai/ha, read-out: Bromus secalinus observed) of the same compound?
**A.** 0%

**Q.** What about the Digitaria sanguinalis observed (Digitaria sanguinalis; 4 g of ai/ha) of the same compound?
**A.** 20%

**Q.** And the Polygonum convolvolus observed (Polygonum convolvolus; 2 g of ai/ha)?
**A.** 70%

**Q.** What about the Polygonum convolvolus observed (Polygonum convolvolus; 4 g of ai/ha) of the same compound?
**A.** 80%
